From publication PMC11215771 (Journal of Medicinal Chemistry, 2024)
Values joined by “and” are separate entries in the source; they are usually repeats but may differ in a detail not shown here. Equal entries are not always repeated.

Tests used:
[1] = target: T1, wild-type hBACE1 in CHO-K1 cells (Homo sapiens, UniProt P56817); assay: Single molecule TIRF microscopy and bleaching step analysis in CHO-K1 cells; type: cell-based; settings: 200 nM probe, fixed CHO-K1, TIRF, after rolling background subtraction
T1 construct: expressed in transfected cells; host or cells: CHO-K1
Protocol: Due to the high photostability and quantum yield of the Alexa dyes, the C3-compounds are potential tools for single molecule fluorescence microscopy of BACE1. […] CHO-K1 cells were transfected with wild-type BACE1. […] The samples were then recorded using total internal reflection fluorescence (TIRF) microscopy. […] Prior to analysis, ImageJ rolling background subtraction was applied[45] (Figure 6A, right panel). […] Single particles were identified and time traces of fluorescence intensity were extracted using GMimPro[46] (Figure 6B). The time traces were then subjected to a bleaching-step analysis with quickPBSA[47] (Figure 6B). […] The msfGFP was reported previously to display a fluorescence probability of about 50%, defined as combined probability of fluorescence, detection in the specific imaging system and identification in the analysis of a BACE1 molecule.[48] […] Here, the best fits indicated also a fluorescence probability of about 60%, but with a considerably lower fit error compared to dimers only (Figure 6D, blue traces).
The panel in the middle depicts typical single molecule complexes 48 h after transfection with 50 ng wild type BACE1. […] The insets highlight single fluorescence spots at higher magnification. […] (B) Single fluorescence spots were located and fluorescence intensities over time were extracted (see methods). […]

[2] = target: BACE-1 (mouse Protein, recombinant) (Mus musculus, UniProt P56818); assay: Nanotemper (Monolith NT.115) binding analysis
BACE-1 (mouse Protein, recombinant), sequence (P56818 46-457 limits assumed): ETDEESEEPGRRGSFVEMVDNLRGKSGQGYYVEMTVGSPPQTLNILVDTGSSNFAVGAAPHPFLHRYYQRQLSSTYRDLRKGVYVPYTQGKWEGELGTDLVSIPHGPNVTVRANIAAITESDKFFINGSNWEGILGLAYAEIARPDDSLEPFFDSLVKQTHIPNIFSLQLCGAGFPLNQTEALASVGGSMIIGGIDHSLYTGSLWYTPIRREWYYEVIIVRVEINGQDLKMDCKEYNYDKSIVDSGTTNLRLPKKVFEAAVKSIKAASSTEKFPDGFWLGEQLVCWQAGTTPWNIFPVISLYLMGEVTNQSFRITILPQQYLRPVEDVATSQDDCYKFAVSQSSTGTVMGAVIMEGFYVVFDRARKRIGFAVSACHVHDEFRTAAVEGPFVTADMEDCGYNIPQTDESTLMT
Protocol: For binding analysis, the Monolith NT.115 (Nanotemper) was used. BACE-1 (mouse Protein, recombinant, life technologies, 50002-M08H-250, LCL10JA2204)) was dissolved in 50 mM HEPES/100 mM NaCl, pH 5 to a concentration of 20 μM. […] Samples were loaded on standard capillaries (Nanotemper, MO-K022) and measured in triplicate at 22 °C, using 1%/60% LED power for Alexa488/Alexa568 and 10% MST power. Fluorescence was plotted against protein concentrations.

T1 sequence (P56817 46-501): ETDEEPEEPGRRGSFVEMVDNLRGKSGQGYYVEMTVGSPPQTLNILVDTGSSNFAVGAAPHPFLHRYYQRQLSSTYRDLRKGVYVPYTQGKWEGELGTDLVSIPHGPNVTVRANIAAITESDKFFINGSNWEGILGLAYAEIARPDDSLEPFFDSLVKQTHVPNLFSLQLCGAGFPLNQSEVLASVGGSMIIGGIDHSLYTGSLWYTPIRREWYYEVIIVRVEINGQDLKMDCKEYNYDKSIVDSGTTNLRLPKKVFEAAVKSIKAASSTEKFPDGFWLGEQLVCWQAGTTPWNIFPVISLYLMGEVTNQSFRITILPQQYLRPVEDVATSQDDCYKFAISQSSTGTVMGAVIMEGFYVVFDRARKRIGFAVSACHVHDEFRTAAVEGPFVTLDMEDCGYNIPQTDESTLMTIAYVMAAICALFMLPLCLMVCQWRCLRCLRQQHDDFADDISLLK

- signal-to-background ratio [1]: 4.8
- Kd [2]: 1000 nM
- fluorescence reading, single replicates ([2]; BACE1 concentration 0.305 (unit not given; 0.3–5000 nM), triplicate): 995.235 and 994.451 and 995.188
- fluorescence reading, single replicates ([2]; BACE1 concentration 0.61, triplicate): 995.092 and 995.228 and 995.025
- fluorescence reading, single replicates ([2]; BACE1 concentration 1.221, triplicate): 995.123 and 995.217 and 995.055
- fluorescence reading, single replicates ([2]; BACE1 concentration 2.441, triplicate): 994.777 and 994.504 and 994.766
- fluorescence reading, single replicates ([2]; BACE1 concentration 4.883, triplicate): 994.407 and 994.774 and 995.083
- fluorescence reading, single replicates ([2]; BACE1 concentration 9.766, triplicate): 995.092 and 994.263 and 994.945
- fluorescence reading, single replicates ([2]; BACE1 concentration 19.531, triplicate): 994.925 and 994.824 and 995.417
- fluorescence reading, single replicates ([2]; BACE1 concentration 39.062, triplicate): 994.869 and 994.87 and 995.275
- fluorescence reading, single replicates ([2]; BACE1 concentration 78.125, triplicate): 995.397 and 995.08 and 995.109
- fluorescence reading, single replicates ([2]; BACE1 concentration 156.25, triplicate): 995.324 and 994.996 and 995.206
- fluorescence reading, single replicates ([2]; BACE1 concentration 312.5, triplicate): 995.935 and 995.418 and 995.988
- fluorescence reading, single replicates ([2]; BACE1 concentration 625, triplicate): 996.951 and 996.59 and 996.649
- fluorescence reading, single replicates ([2]; BACE1 concentration 1250, triplicate): 999.327 and 998.59 and 999.026
- fluorescence reading, single replicates ([2]; BACE1 concentration 2500, triplicate): 1002.784 and 1002.705 and 1002.138
- fluorescence reading, single replicates ([2]; BACE1 concentration 5000, triplicate): 1000.96 and 1001.179 and 1001.396
SMILES: C[C@@H](NC(=O)c1cc(C(=O)N[C@@H](Cc2ccccc2)[C@H](O)CNC2CC2)cc(N(C)S(=O)(=O)CCCNC(=O)c2ccc(C(=O)O)c(-c3c4ccc(=N)c(S(=O)(=O)O)c-4oc4c(S(=O)(=O)O)c(N)ccc34)c2)c1)c1ccccc1 [2-(6-Amino-3-iminio-4,5-disulfo-3H-xanthen-9-yl)-4-((3-(N-(3-(((2S,3R)-4-(cyclopropylamino)-3-hydroxy-1-phenylbutan-2-yl)carbamoyl)-5-(((R)-1-phenylethyl)carbamoyl)phenyl)-N-methylsulfamoyl)propyl)carbamoyl)benzoate]
